Assay results: patent US7662767B2, “Polynucleotide intercalator interceptors and inhibitors” (Materials Evolution and Development USA, Inc., priority 2000, dated 2010)
Several values for one entry are separate records, joined by “and”; a condition that tells them apart may be missing. Equal entries are not always repeated.

Assays:
[1] = Optical titration (absorbance) of acridine orange with xanthines/purines, Kassoc from delta absorbance; type: binding; settings: for Kassoc ± S.E.: binding affinity between acridine orange (10 μM) and compound, 5 mM HEPES pH 7.0, 25±1° C., 0 = no measurable association detected; for complex formation / binding affinity with AO: optical titration
Procedure: A red spectral shift in the optical adsorption maximum of AO upon the addition of a particular xanthine, indicates the possibility of a complex being formed between the two compounds. Spectral shifts can be measured by optical titrations.
Optical titrations (serial additions of various xanthines to a solution of AO) were performed on a Beckman DU-600 Scanning Spectrophotometer (Beckman Instrument Co., New York, N.Y.) using a 3 mL (1-cm light path) quartz cuvette containing 2.0 mL of a […]. The DU600 Spectrophotometer was blanked with 2 mL of a pH 7.0 buffered 5 mM HEPES solution over the full range of wavelengths to be scanned prior to sample analysis. This reduced the need to subtract the background absorbance from the HEPES buffer. Optical absorbance scans were performed over a wavelength range preferably from 400 nm to 550 nm. […] The 10 μM AO solution was scanned before the start of each titration series to quantitatively monitor any changes in the absorbance spectrum. Optical absorbance experiments were performed using aliquots varying in volume from 1:L to 20:L taken from prepared xanthine stock solutions (5 mM to 50 mM) and titrated into the cuvette containing 2.0 mL of the 10 μM AO solution. The solution in the cuvette was then thoroughly mixed by 10 seconds of shaking before scanning. All titrations were performed at room temperature (25±1° C.). The absorbance spectra were measured in 1 nm intervals and stored in digital form. Digitized scan data was converted to a Lotus Spreadsheet file (*.wk1) using a conversion program supplied by the manufacturer (Beckman Instruments Inc.) then imported into a Microsoft Excel 97™ Workbook file (*.xls) and saved in this format for further analysis. Spectral data for each titration was combined and expressed in graphic form (Excel™) (X-axis=wavelength in nm; Y-axis=optical absorbance) for each xanthine titrated with AO. […] Adjusted absorption values were plotted and compared to spectra from non-complexed AO. This allowed for the visualization of an expected spectral shift that occurs when AO forms a complex with a xanthine.
The association constant, Kassoc, may be used to analyze the binding ability of modified xanthines to DNA intercalators. The association constant may be calculated based upon a differential shift in the absorbance spectrum. When the presence of the xanthine caused a spectral shift, a difference absorbance plot or delta plot was obtained. Delta plots were constructed by subtracting the adjusted absorption spectrum of AO in the presence of the xanthine from the initial spectrum of AO alone at each wavelength and for each aliquot of the titration. This procedure allowed for the creation of difference absorption values or delta absorption values. Delta absorption values obtained in this manner (Y-axis=delta absorption) were plotted against wavelength in nm (X-axis). The appearance of a single isobestic point was indicative of only two species present in solution, AO, and an AO complex. Graphic representation allowed for the selection of a wavelength with the maximum sensitivity for determining the association constant. This wavelength was characterized by the greatest positive response in delta absorbance values observed upon addition of each aliquot of xanthine to the AO solution. The AO-xanthine association or binding constant was determined by the following equilibrium expression: I+X≡IX EQUATION 1: […]
Where I represents the intercalator (AO), X represents the interceptor molecule (xanthine), and IX represents the AO-xanthine complex, respectively.

[2] = tested on: chicken erythrocyte nuclear chromatin; test: Removal of acridine orange from stained chicken erythrocyte nuclear chromatin by xanthine rinse, fluorescence microscopy; settings: for Nuclear color, Stain: before xanthine rinse; for Nuclear color, Re-stain: re-stained after xanthine rinse; for Nuclear color, After Rinse: xanthine rinse 50 mM, 1 hour, static
Procedure: Experiments were conducted to determine whether xanthines with known binding affinities to AO could compete with nuclear DNA for binding to AO and, therefore, be able to remove AO from its intercalation position within nuclear chromatin. Fluorescence microscopy was used to observe the fluorescent color produced by the AO-DNA complex following the staining of chicken erythrocyte nuclear chromatin with AO at both 5 μM and 5 mM.
Microscope slides smeared with chicken erythrocytes were stained with either 5 μM or 5 mM AO for a period of 30 minutes followed by three 10 second rinses in distilled water before drying at room temperature. Slides were then examined by fluorescence microscopy using a, Zeiss Model 63 Microscope with a xenon source fluorescent emitter. In some instances, a blocking filter was used to filter out fluorescence emission in the red and higher wavelengths. Photomicrographs were taken with Kodak Gold 35 mm ASA 1600 speed film, developed and color prints made. Comparative photomicrographs were taken at the same magnification and at the same exposure time. Selected photomicrographs were digitally scanned (Hewitt-Packard, Model 4L Scanner, Palo Alto, Calif.) and stored on 100 MB ZIP cartridges.
Slides were again examined by fluorescence microscopy and fluorescence color of the nuclei recorded. Slides were again stained with 5 mM AO then re-examined by fluorescence microscopy and fluorescence color of the nuclei recorded.
In the example shown in Table 4-3, the chicken erythrocytes were smeared and dried on a microscope slide prior to exposure to the AO solution for 30 minutes followed by water rinses to remove excess AO. Following drying, each slide was observed under fluorescence microscopy then placed in one of the xanthine solutions (50 ml volume) for 1 hour under static conditions, rinsed with water, then dried prior to being observed by fluorescence microscopy without a red blocking filter. Finally, each slide was restained following the initial staining procedures and again observed by fluorescence microscopy. Kassoc values are taken from Table 2-1 and are expressed in M^−1.

[3] = tested on: chicken erythrocyte nuclear chromatin; test: Blocking of acridine orange intercalation into chicken erythrocyte nuclear chromatin, fluorescence microscopy; design: key: 0: no blocking effect; 1: slight blocking; 2: moderate blocking; 3: almost total blocking (very slight green fluorescence detectable); 4: complete blockage (no green fluorescence detectable); settings: 10 μM AO
Procedure: Microscope slides coated with chicken erythrocyte were stained with 10 μM AO at three separate areas on the microscope slide as described above. Slides were exposed to […] different xanthies at four different molar ratios for three different periods of time. The xanthines, theophylline, caffeine, 1,3,7,9-tetramethyl uric acid, and aminophylline, were prepared with 10 μM AO at molar ratios of 50:1, 500:1, 2500:1, 5000:1 xanthine to AO in distilled water. Microscope slides coated with chicken erythrocytes were exposed to a mixture of xanthine/AO at each molar ratio for periods of 10 min, 1 min, and 10 seconds under static (non-agitated) conditions. […] Following exposure to the xanthine/AO or to the DNA/AO solutions, the slides were rinsed in distilled water, allowed to dry at room temperature, examined by fluorescence microscopy, and the color of the nuclei recorded. Results were recorded as follows: 0=no blocking effect; 1=slight blocking; 2=moderate blocking; 3=almost total blocking (very slight green fluorescence detectable); 4=complete blockage (no green fluorescence detectable).
In the implementation shown in Table 4-2, the relative intensity of the green fluorescent color ([…]) utilizing a red blocking filter (≧600 nm) was used as the indicator of the intensity of staining. The molar ratio is expressed as the ratio of xanthine concentration to 10 μM AO. Results were recorded as follows: 0=no blocking effect; 1=slight blocking; 2=moderate blocking; 3=almost total blocking (very slight green fluorescence detectable); 4=complete blockage (no green fluorescence detectable). *Kassoc values for the xanthines are taken from Table 2-1 and the Kassoc values for DNA were taken from Table 3-2.

[4] = Table 2-2, Kassoc value with acridine orange (this report)

In the case of `Cn1cnc2ncnc-2c1N` [1-methyl-6-amino purine], the “Kassoc ± S.E.” value [1] is reported as roughly 14 M⁻¹.

With `Cn1c(=O)[nH]c2[nH]c(=O)[nH]c2c1=O` [1-methyl-8-oxy xanthine] the “Kassoc ± S.E.” value [1] was 0 M⁻¹ and the “complex formation / binding affinity with AO” value [1] was “failed to exhibit any significant binding affinity for AO”.

For `Clc1ncnc2nc[nH]c12` [6-chloro purine], the “Kassoc ± S.E.” value [1] was 0 M⁻¹.

In the case of `Cn1cnc2[nH]c(=O)[nH]c(=O)c21` [7-methyl xanthine], the “Kassoc ± S.E.” value [1] is reported as 0 M⁻¹ and the “complex formation / binding affinity with AO” value [1] is reported as “little or no affinity to complex with AO”.

In the case of `Cn1c(=O)[nH]c2ncn(C)c2c1=O` [1,7-dimethyl xanthine], the Kassoc [1, 4] is reported as 155 M⁻¹ and the “Kassoc ± S.E.” value [1] is reported as 155.3 ± 3.1 M⁻¹.

With `Cn1c(=O)c2[nH]cnc2n(C)c1=O` [1,3-dimethyl xanthine (theophylline), 1,3-dimethyl xanthine] the “Nuclear color, Stain” value ([2]; AO [5 μM] 30 minutes) was “Green”, the “Nuclear color, Re-stain” value ([2]; AO [5 μM]) was “Green” and the “Nuclear color, After Rinse” value ([2]; AO [5 μM]) was “Green”. The “Nuclear color, Stain” value ([2]; AO [5 mM] 30 minutes) was “Red”, the “Nuclear color, Re-stain” value ([2]; AO [5 mM]) was “Red” and the “Nuclear color, After Rinse” value ([2]; AO [5 mM]) was “Red”. The Kassoc [1, 4] was 157 M⁻¹, the Kassoc ([1]; Table 4-2, in parentheses under compound, taken from Table 2-1) was “(157) M^−1” and the Kassoc ([1]; Table 4-3, taken from Table 2-1) was 161 M⁻¹. For the same molecule, the “Kassoc ± S.E.” value [1] was 160.8 M⁻¹, the “blocking of AO intercalation” value ([3]; Xanthine/AO molar ratio 5000:1, exposure 10 min) was 0 and the “blocking of AO intercalation” value ([3]; molar ratio 50:1, exposure 10 sec) was 0. For the same molecule, the “blocking of AO intercalation” value ([3]; molar ratio 50:1, exposure 1 min) was 0, the “blocking of AO intercalation” value ([3]; molar ratio 50:1, exposure 10 min) was 0 and the “blocking of AO intercalation” value ([3]; molar ratio 500:1, exposure 10 sec) was 0. For the same molecule, the “blocking of AO intercalation” value ([3]; molar ratio 500:1, exposure 1 min) was 0, the “blocking of AO intercalation” value ([3]; molar ratio 500:1, exposure 10 min) was 0 and the “blocking of AO intercalation” value ([3]; molar ratio 2500:1, exposure 10 sec) was 0. For the same molecule, the “blocking of AO intercalation” value ([3]; molar ratio 2500:1, exposure 1 min) was 0, the “blocking of AO intercalation” value ([3]; molar ratio 2500:1, exposure 10 min) was 0 and the “blocking of AO intercalation” value ([3]; molar ratio 5000:1, exposure 10 sec) was 0. The “blocking of AO intercalation” value ([3]; molar ratio 5000:1, exposure 1 min) was 0.

In the case of `Cn1c(=O)[nH]c(=O)c2[nH]cnc21` [3-methyl xanthine], the “complex formation / binding affinity with AO” value [1] is reported as “little or no affinity to complex with AO”.

With `Cn1c(=O)c2[nH]c(=O)[nH]c2n(C)c1=O` [1,3-dimethyl-8-oxy xanthine] the “Kassoc ± S.E.” value [1] was 38.5 M⁻¹ and 38.5 ± 2.2 M⁻¹ and the “complex formation / binding affinity with AO” value [1] was “failed to exhibit any significant binding affinity for AO”.

In the case of `Cn1c(=O)c2[nH]c(Cl)nc2n(C)c1=O` [1,3-dimethyl-8-chloro xanthine], the “Kassoc ± S.E.” value [1] is reported as 412.5 ± 11.7 M⁻¹ and the “complex formation / binding affinity with AO” value [1] is reported as “failed to exhibit any significant binding affinity for AO”.

With `Cn1c(=O)[nH]c2[nH]c(=O)[nH]c(=O)c21` [7-methyl-8-oxy xanthine] the “Kassoc ± S.E.” value [1] was 0 M⁻¹ and the “complex formation / binding affinity with AO” value [1] was “little or no affinity to complex with AO”.

With `O=c1[nH]c(=O)c2[nH]c(=O)[nH]c2[nH]1` [uric acid (8-oxy xanthine), 8-oxy xanthine] the “Kassoc ± S.E.” value [1] was 0 M⁻¹ and the “complex formation / binding affinity with AO” value [1] was “did not complex with AO”.

With `Cc1ncnc2nc[nH]c12` [6-methyl purine] the “Kassoc ± S.E.” value [1] was 0 M⁻¹.

With `c1ncc2[nH]cnc2n1` [Purine] the “Kassoc ± S.E.” value [1] was roughly 2 M⁻¹.

With `Cn1c(=O)[nH]c2nc[nH]c2c1=O` [1-methyl xanthine] the Kassoc [1, 4] was 79^a M^−1, the “Kassoc ± S.E.” value [1] was 79.2 ± 2.0 M⁻¹ and the “complex formation / binding affinity with AO” value [1] was “failed to exhibit any significant binding affinity for AO”.

In the case of `COc1nc(N)nc2nc[nH]c12` [2-amino-6-methoxy purine], the “Kassoc ± S.E.” value [1] is reported as roughly 2 M⁻¹.
